Assay results from US20240200118A1, “COMPOSITIONS AND METHODS FOR OPTIMIZING TROPISM OF DELIVERY SYSTEMS FOR RNA” (Renagade Therapeutics Management Inc., priority 2021, published 2024).

Experiment: In vivo biodistribution of co-delivered barcoded LNPs by Next Generation Sequencing of barcodes in tissues
Parameters: species or system BALB/c mice
Details: liver, kidney, lung, heart and brain; tail vein, 0.01 mg/kg per barcoded payload; compared with formulations using Lipids 1 and 3
Method: LNP/barcode complexes were prepared as described in Example 5. LNP/Barcode complex formulations were made by mixing different LNP/Barcode complex formulations together in equal parts (unless otherwise noted), to form Study Groups 1 and 2. Study Group 1 was dosed with a complex formulation that included formulations F-1, F-2, F-3, F-4, F-5, F-6, F-7, F-8 and F-16 in equal parts. Study Group 2 was dosed with a complex formulation that included formulations F-9, F-10, F-11, F-12, F-13, F-14, F-15, F-16 and F-17 in equal parts, except for F-10 which was mixed at 1/10th the concentration. BALB/c mice were injected via tail vein with 0.01 mg/kg (per unique barcoded payload, except for oRNA2A in F-10, which was dosed at 0.001 mg/kg) for each of Study Groups 1 and 2 in a total volume of 5 mL/kg. Each Study Group was dosed in 6 mice, and an additional 3 mice were dosed with PBS control. At 6 hr post injection, 3 animals from Study Group 1 were humanely euthanized by CO2 inhalation and organs including liver, spleen, lung, heart, kidney, brain, and blood were collected and snap frozen using liquid nitrogen. […] BLI images were detected in the auto-exposure mode. The BLI signal was quantitated using Living Image 4.7 software (Perkin Elmer) following the manufacturer's instruction. After BLI analysis the weights of the collected organs was measured. […]

CCCCCCCCCCCCCCCCCC[N+](C)(CCCCCCCCCCCCCCCCCC)CCNC(=N)N.[Cl-] [Lipid 2]
delivery to organs (barcode ratios normalized to the input material): superior delivery in most organs tested
